Test results from patent US10610537B2, “Methods of producing sialooligosaccharides and uses thereof” (MASAYOSHI LTD., priority 2016, dated 2020).

Columns and labels:
IGF-1 = test: Ability to promote the production of insulin-like growth factor-1 (IGF-1) in mice; assay type: in vivo; conditions: mice (n=5), in drinking water, 5 mg/kg weight/day, 3 weeks, ELISA; untreated control 0.03
Procedure: Each of the test substances produced in Example 1 and the reference standard of sialic acid (N-acetylneuraminic acid produced by Wako Pure Chemical Industries, Ltd. and having a product number of 011-26173) was dissolved in drinking water, and after adjustment of their concentrations, the individual solutions were administered to mice (n=5); the test substances were administered at 5 mg/kg weight/day. After rearing for 3 weeks, the concentration of IGF-1 in peripheral blood was examined by ELISA method.

NIH3T3 cells = test: Cell-proliferative activity, NIH3T3 cells (MTT assay method, Cell Counting Kit-8); assay type: cell-based; conditions: for Cell proliferation rate: 24 hours, no addition taken as 100
Procedure: NIH3T3 cells were cultured in a 96-well microplate to give a cell density of 10^5 cells/well, and solutions of concentration-adjusted test substance 1 and reference standard of sialic acid (N-acetylneuraminic acid produced by Wako Pure Chemical Industries, Ltd. and having a product number of 011-26173) were each added in an amount of 10 μl, followed by culture in a CO2 incubator for 24 hours (37° C., 4.5% CO2). Cell proliferation was measured by the MTT assay method using a kit (Cell Counting Kit-8 produced by DOJINDO Corporation and having a product number of 347-07621).
The cell proliferation rate was calculated at the respective additive concentrations of the test substance 1, with the value for no addition (0 mg/ml) of the test substance 1 being taken as 100.
The cell proliferation rate was calculated at the respective additive concentrations of the reference standard of sialic acid, with the value for no addition (0 mg/ml) of the reference standard of sialic acid being taken as 100.

`CC(=O)N[C@H]1[C@H]([C@H](O)[C@H](O)CO)OC(O)(C(=O)O)C[C@@H]1O` (some centres unmarked) [Reference standard of sialic acid, N-acetylneuraminic acid] was tested, and the “IGF-1 concentration in peripheral blood” value (IGF-1) was 4.4 µg/mL, the Cell proliferation rate (NIH3T3 cells; additive concentration 0.08 mg/ml) was 96 and the Cell proliferation rate (NIH3T3 cells; additive concentration 0.31 mg/ml) was 98. It also gave a Cell proliferation rate (NIH3T3 cells; additive concentration 1.25 mg/ml) of 101, a Cell proliferation rate (NIH3T3 cells; additive concentration 2.5 mg/ml) of 98 and a Cell proliferation rate (NIH3T3 cells; additive concentration 5.0 mg/ml) of 99. For the same compound, the Cell proliferation rate (NIH3T3 cells; additive concentration 10.0 mg/ml) was 102 and the “Change in cell proliferation rate (in words)” value (NIH3T3 cells; additive concentrations up to 10.0 mg/ml) was “No change was recognized in the proliferation rate”.
